Values quoted from earlier work, collected in patent US10450322B2, “Low molecular weight derivatives of carboxamide halogenated porphyrins, namely chlorins and bacteriochlorins, and their applications thereof” (LUZITIN, S.A., priority 2015, dated 2019).

Conditions: at physiological pH; cited from earlier work

SMILES: Oc1cccc(-c2c3nc(c(-c4cccc(O)c4)c4ccc([nH]4)c(-c4cccc(O)c4)c4nc(c(-c5cccc(O)c5)c5ccc2[nH]5)CC4)C=C3)c1 [temoporfin, 5,10,15,20-tetra (m-hydroxyphenyl)chlorin]
- log POW: 5.5
